The text below walks through data of patent US20100249175A1, “Dicationic compounds which selectively recognize G-quadruplex DNA” (priority 2005, published 2010).

The structures appear in SMILES notation.

Experiment [1] concerns telomeric G-quadruplex DNA sequence d[AG3(T2AG3)3] (SEQ ID NO: 1). The experiment is described as follows: CD titration of compounds into human telomeric G-quadruplex DNA (induced CD). The format is binding. An excerpt: The oligonucleotides d[AG3(T2AG3)3] (SEQ ID NO: 1), d[AG3TG4AG3TG4A] (SEQ ID NO: 2), d[G4(T4G4)3] (SEQ ID NO: 3), d[(T2G4)4] (SEQ ID NO: 4), d[(GC)7] (SEQ ID NO: 5), d[[…]] (SEQ ID NO: 6), d[G2T2G2TGTG2T2G2] (SEQ ID NO: 7), d[[…]] (SEQ ID NO: 8), d[[…]] (SEQ ID NO: 9), d[[…]] (SEQ ID NO: 10), d[[…]] (SEQ ID NO: 11), d[TTAGGGT] (SEQ ID NO: 12), and d[TGGGGT] (SEQ ID NO: 13) were purchased with HPLC purification from Midland Certified Reagent Company (The Midland Certified Reagent Company, Inc., Midland, Tex., USA). The concentration of each DNA sample was determined spectrophotometrically at 260 nm using the nearest neighbor extinction coefficient.
Stock solutions of individual dicationic polyaryl compounds were prepared in double distilled water and diluted to working concentrations immediately before use with buffer. All measurements were performed at 20° C. in a 10 mM HEPES buffer (pH 7.4) containing 3 mM EDTA and 50 mM KCl, NaCl, or LiCl. Absorbance spectra were obtained on a Varian Cary 300 BIO UV-visible spectrophotometer (Varian, Inc., Palo Alto, Calif., United States of America) in a quartz cell with a 1 cm pathlength. CD spectra were recorded using a Jasco J-810 spectrapolarimeter (Jasco, Inc., Easton, Md., United States of America) in a 1-cm cell using an instrument scanning speed of 50 nm/min with a response time of 1 s. The spectra were averaged over four scans. A buffer baseline scan was collected in the same cuvette and subtracted from the average scan for each sample. Appropriate amounts of dicationic compound stock solution or DNA were added sequentially to increase the molar ratio.
When an achiral ligand binds tightly to a chiral host, such as DNA, a CD signal is induced in the wavelength region corresponding to the absorbance of the ligand. […] An additional negative band centered at 395 nm overlaps with the higher energy exciton band. […] Restriction of the rotational and translational freedom of the two molecules of the dimer relative to each other will cause an increase in the rotational strength of the induced CD band, resulting in a large ellipticity. See Allenmark, S., Chirality, 15, 409-422 (2003).
Some compounds appeared to bind to the telomeric G-quadruplex DNA sequence d[AG3(T2AG3)3] […] Relative strength of the induced CD is indicated by the number of (+) marks.

For experiment [2], the target named is duplex hairpin d[[…]] (SEQ ID NO: 8). Kind of experiment: Surface plasmon resonance, immobilized duplex hairpin DNA. The format is binding. The conditions noted are these: SPR, 25° C., HEPES buffer containing 200 mM KCl. The procedure:
Surface plasmon resonance (SPR) measurements were performed with a four-channel Biacore® 3000 optical biosensor system (Biacore International AB, Uppsala, Sweden). 5′-biotin labeled DNA was immobilized onto streptavidin-coated Biacore® SA sensor chips as previously described. See Lacy, E. R., et al., J. Amer. Chem. Soc., 124, 2153-2163 (2002); Mazur, S., et al., J. Mol. Biol., 300, 321-337 (2000); Nguyen, B., et al., Biopolymers, 63, 281-297 (2002); Wang, L., et at, Proc. Natl. Acad. Sci. USA, 97, 12-16 (2000); and Wang, L., et al., Biochemistry, 40, 2511-2521 (2001). Two flow cells were used to immobilize the
DNA oligomer samples, while a third cell was left blank as a control. […]
Solutions of known concentration of 8 ranging from 2 nM to 10 μM were injected through the flow cells until a constant steady-state response was obtained. […] The instrument response (RU) in the steady-state region was determined by linear averaging over a 50 second time span. The predicted maximum response per bound compound in the steady-state region (RUmax) was determined from the DNA molecular weight, the amount of DNA on the flow cell, the compound molecular weight, and the refractive index gradient ratio of the compound and DNA, as previously described. […]
Surface plasmon resonance (SPR) was used to quantitatively evaluate the interaction between 8 and human telomeric DNA. […]

Experiment [3] concerns Plasmodium falciparum (P. f.). Kind of experiment: In vitro antiprotozoal activity against P. f. The format is cell-based. The conditions noted are these: in vitro, read-out: P.f. (IC50). The method, then:
In vitro antiprotozoal activities were measured following established protocols. […] E., et al., Bioorg.

For orientation: IC50 means the concentration that inhibits the measured activity by half. Consider `N=C(N)c1ccc(-c2ccc(-c3ccc(C(=N)N)o3)o2)cc1` [Compound 8, 5′-(4-Amidinophenyl)-2,2′-bifuran-5-carboxamidine], for which the “exciton splitting in CD spectra (in words)” value in experiment [1] is “induced exciton splitting”. Also, the “Induced CD (exciton)” value in experiment [1] (G-Quadruplex Affinity) is “+++++”. Besides, the “K, binding constant for the single site” value in experiment [2] stood at 130000 M⁻¹. In experiment [3], the IC50 was determined as 41.5 nM.
